According to patent US20210221866A1, “PROTEASE-RESISTANT LIPIDATED GLP-1 ANALOGS” (MEDIMMUNE LIMITED, priority 2015, published 2021):
Like-named read-outs stand apart in the source and are kept apart here. Numbered stars: 1 amine (or outer) side, 2 acyl side, 3 side chain; on linkers, the order of the positions; unused ones are H or OH. Square brackets hold non-standard residues; d marks the D form. Side chains are listed from the residue outwards. Peptide text beside a SMILES is read from it. * marks the point of attachment. γGlu = O=C(O)[C@H](CCC(=O)[*:2])N[*:1]; αMeF = C[C@](N)(Cc1ccccc1)C(=O)O; αMeK = C[C@](N)(CCCCN)C(=O)O; Lauroyl = CCCCCCCCCCCC(=O)*; αMeS = C[C@](N)(CO)C(=O)O; AEEA = NCCOCCOCC(=O)O; Aib = CC(C)(N)C(=O)O

Legend:
Format in all cases: cell-based
[1] = target: T1, human glucagon receptor (GCGR) (Homo sapiens, UniProt P47871); test: cAMP assay, human GCGR cells; conditions: Table 9, bis-lipidated peptides
T1 construct: expressed in transfected cells; host or cells: HEK293 cells or CHO cells
T1 sequence (P47871 26-477): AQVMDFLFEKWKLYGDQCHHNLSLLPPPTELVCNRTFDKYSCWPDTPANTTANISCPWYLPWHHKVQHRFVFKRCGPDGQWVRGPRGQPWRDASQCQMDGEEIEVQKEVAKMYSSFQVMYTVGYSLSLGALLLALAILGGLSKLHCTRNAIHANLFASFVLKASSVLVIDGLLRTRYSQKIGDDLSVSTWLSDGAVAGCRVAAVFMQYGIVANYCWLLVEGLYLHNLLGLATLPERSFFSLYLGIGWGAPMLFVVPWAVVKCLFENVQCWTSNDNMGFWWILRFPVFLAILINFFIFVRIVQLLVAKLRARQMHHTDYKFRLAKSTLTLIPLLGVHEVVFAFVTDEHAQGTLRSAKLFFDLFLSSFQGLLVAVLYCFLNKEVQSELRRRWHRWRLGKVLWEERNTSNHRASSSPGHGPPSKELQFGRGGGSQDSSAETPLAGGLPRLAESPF
Description: (§1) Sample dilutions are made in duplicate.
(§2) A frozen cryo-vial of cells expressing the receptor of interest is thawed rapidly in a water-bath, transferred to pre-warmed assay buffer and spun at 240×g for 5 minutes. Cells are re-suspended in assay buffer at a batch-dependent optimized concentration (e.g. hGCGR cells at 2×10^5 cells/ml, hGLP-1R and hGIPR cells at 1×10^5 cells/ml).
(§3) To this, 5 μL cell suspension is added and the plates incubated at room temperature for 30 minutes.
(§4) cAMP levels are measured using a commercially available cAMP dynamic 2 HTRF kit (Cisbio, Cat #62AM4PEJ), following the two step protocol as per manufacturer's recommendations. In brief; anti-cAMP cryptate (donor fluorophore) and cAMP-d2 (acceptor fluorophore) are made up separately by diluting each 1/20 in conjugate & lysis buffer provided in the kit. 5 μL anti-cAMP cryptate is added to wells of the assay plate, and 5 μL cAMP-d2 is added to wells except non-specific binding (NSB) wells, to which conjugate and lysis buffer are added. […] EC50 values of the synthetic peptides determined in cAMP assays are then determined.
(§5) Data is transformed to % Delta F as described in the manufacturer's guidelines and analyzed by 4-parameter logistic fit to determine EC50 values. […] To compare the balance of activities at the GLP-1R and GCGR between different peptides and across different conditions, these can be correlated, where the EC50's are related to those of comparator peptides.

[2] = target: T2, human glucose-dependent insulinotropic peptide receptor (GIPR) (Homo sapiens, UniProt P48546); test: cAMP assay, human GIPR cells; conditions: Table 9, bis-lipidated peptides
T2 construct: expressed in transfected cells; host or cells: HEK293 cells or CHO cells
T2 sequence (P48546 22-466): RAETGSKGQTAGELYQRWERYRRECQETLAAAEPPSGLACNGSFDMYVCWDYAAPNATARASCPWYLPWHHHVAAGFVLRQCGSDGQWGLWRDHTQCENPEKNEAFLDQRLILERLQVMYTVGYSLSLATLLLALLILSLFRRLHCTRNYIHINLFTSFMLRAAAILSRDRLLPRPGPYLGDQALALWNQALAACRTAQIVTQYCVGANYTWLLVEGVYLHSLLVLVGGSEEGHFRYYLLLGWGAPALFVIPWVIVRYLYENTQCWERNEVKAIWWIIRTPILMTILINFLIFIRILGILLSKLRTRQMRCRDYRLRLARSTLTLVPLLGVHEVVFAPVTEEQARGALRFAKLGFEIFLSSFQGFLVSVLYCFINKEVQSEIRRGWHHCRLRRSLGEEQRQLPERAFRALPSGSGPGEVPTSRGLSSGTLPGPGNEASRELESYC
Description: as §1, §2, §3, §4, §5

[3] = target: T3, human GLP-1 receptor (GLP-1R) (Homo sapiens, UniProt P43220); test: cAMP assay, human GLP-1R cells; conditions: Table 11, tris-lipidated peptides; mean of n1 and n2; read-out: Primary assay EC50 Mean pM GLP-1R
T3 construct: expressed in transfected cells; host or cells: HEK293 cells or CHO cells
T3 sequence (P43220 24-463): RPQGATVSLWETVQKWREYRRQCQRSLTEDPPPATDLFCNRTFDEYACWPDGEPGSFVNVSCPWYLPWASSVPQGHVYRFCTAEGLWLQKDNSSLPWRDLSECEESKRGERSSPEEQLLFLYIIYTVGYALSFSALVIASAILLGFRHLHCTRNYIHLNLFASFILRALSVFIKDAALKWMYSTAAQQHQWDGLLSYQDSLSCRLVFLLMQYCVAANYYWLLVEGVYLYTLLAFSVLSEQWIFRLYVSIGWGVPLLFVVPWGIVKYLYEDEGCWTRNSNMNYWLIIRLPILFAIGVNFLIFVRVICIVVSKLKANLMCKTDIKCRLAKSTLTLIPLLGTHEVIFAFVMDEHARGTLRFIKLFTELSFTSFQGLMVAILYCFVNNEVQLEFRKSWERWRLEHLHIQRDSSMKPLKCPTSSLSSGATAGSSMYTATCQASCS
How it was run: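 Peptide-stimulated cAMP measured by two-step HTRF after a 30 min room-temperature incubation with receptor-expressing cells (hGLP-1R, hGIPR at 1×10^5 cells/ml; hGCGR at 2×10^5 cells/ml). Duplicate dilutions; EC50 from 4-parameter logistic fit of % Delta F.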

SMILES	EC50 [3]	other results
CCCCCCCCCCCC(=O)N[C@@H](CCC(=O)NCCOCCOCC(=O)NCCOCCOCC(=O)NCCCC[C@H](NC(=O)[C@H](C)NC(=O)[C@@H](NC(=O)[C@H](Cc1ccccc1)NC(=O)[C@H](CCC(=O)O)NC(=O)[C@](C)(CCCCN)NC(=O)[C@H](C)NC(=O)[C@H](C)NC(=O)[C@H](CCC(=O)O)NC(=O)CNC(=O)[C@H](CCC(=O)O)NC(=O)[C@H](CC(C)C)NC(=O)[C@H](Cc1ccc(O)cc1)NC(=O)[C@H](CO)NC(=O)[C@H](CO)NC(=O)[C@H](CCCCNC(=O)COCCOCCNC(=O)COCCOCCNC(=O)CC[C@H](NC(=O)CCCCCCCCCCC)C(=O)O)NC(=O)[C@H](CC(=O)O)NC(=O)[C@H](CO)NC(=O)[C@@H](NC(=O)[C@](C)(Cc1ccccc1)NC(=O)[C@H](CO)NC(=O)CNC(=O)[C@H](CCC(=O)O)NC(=O)C(C)(C)NC(=O)[C@@H](N)Cc1c[nH]cn1)[C@@H](C)O)[C@@H](C)CC)C(=O)N[C@H](C(=O)N[C@H](C(=O)N[C@@H](CCC(=O)O)C(=O)NCC(=O)NCC(N)=O)C(C)C)C(C)C)C(=O)O [compound 257] (H-H[Aib]EGS[αMeF]TSDK([AEEA-AEEA-γGlu-Lauroyl])SSYLEGEAA[αMeK]EFIAK([AEEA-AEEA-γGlu-Lauroyl])VVEGG-NH2)		EC50 ([1]; first replicate, read-out: Primary assay EC50 Gluc-R (n1)): ≥ 22.8 nM; EC50 ([1]; second replicate, read-out: Primary assay EC50 Gluc-R (n2)): ≥ 22.8 nM; EC50 ([2]; first replicate, read-out: Primary assay EC50 GIP-R (n1)): ≥ 22.8 nM; EC50 ([2]; second replicate, read-out: Primary assay EC50 GIP-R (n2)): ≥ 22.8 nM
CCCCCCCCCCCC(=O)N[C@@H](CCC(=O)NCCOCCOCC(=O)NCCOCCOCC(=O)NCCCC[C@H](NC(=O)CNC(=O)[C@H](CCC(=O)O)NC(=O)[C@H](CC(C)C)NC(=O)[C@H](Cc1ccc(O)cc1)NC(=O)[C@H](CO)NC(=O)[C@H](CO)NC(=O)[C@H](CCCCNC(=O)COCCOCCNC(=O)COCCOCCNC(=O)CC[C@H](NC(=O)CCCCCCCCCCC)C(=O)O)NC(=O)[C@H](CC(=O)O)NC(=O)[C@H](CO)NC(=O)[C@@H](NC(=O)[C@](C)(Cc1ccccc1)NC(=O)[C@H](CO)NC(=O)CNC(=O)[C@H](CCC(=O)O)NC(=O)C(C)(C)NC(=O)[C@@H](N)Cc1c[nH]cn1)[C@@H](C)O)C(=O)N[C@@H](C)C(=O)N[C@@H](C)C(=O)N[C@@](C)(CCCCN)C(=O)N[C@@H](CCC(=O)O)C(=O)N[C@@H](Cc1ccccc1)C(=O)N[C@H](C(=O)N[C@@H](C)C(=O)N[C@@H](Cc1ccccc1)C(=O)N[C@@H](CCCCNC(=O)COCCOCCNC(=O)COCCOCCNC(=O)CC[C@H](NC(=O)CCCCCCCCCCC)C(=O)O)C(=O)N[C@H](C(=O)N[C@@H](CCC(=O)O)C(=O)NCC(=O)NCC(N)=O)C(C)C)[C@@H](C)CC)C(=O)O [compound 472] (H-H[Aib]EGS[αMeF]TSDK([AEEA-AEEA-γGlu-Lauroyl])SSYLEGK([AEEA-AEEA-γGlu-Lauroyl])AA[αMeK]EFIAFK([AEEA-AEEA-γGlu-Lauroyl])VEGG-NH2; N-terminus assumed)	287 pM	
CCCCCCCCCCCC(=O)N[C@@H](CCC(=O)NCCOCCOCC(=O)NCCOCCOCC(=O)NCCCC[C@H](NC(=O)[C@H](CC(=O)O)NC(=O)[C@H](CO)NC(=O)[C@@H](NC(=O)[C@](C)(Cc1ccccc1)NC(=O)[C@H](CO)NC(=O)CNC(=O)[C@H](CCC(=O)O)NC(=O)C(C)(C)NC(=O)[C@@H](N)Cc1c[nH]cn1)[C@@H](C)O)C(=O)N[C@@H](CO)C(=O)N[C@@H](CO)C(=O)N[C@@H](Cc1ccc(O)cc1)C(=O)N[C@@H](CC(C)C)C(=O)N[C@@H](CCC(=O)O)C(=O)NCC(=O)N[C@@H](CCC(=O)O)C(=O)N[C@@H](C)C(=O)N[C@@H](C)C(=O)N[C@@](C)(CCCCN)C(=O)N[C@@H](CCCCNC(=O)COCCOCCNC(=O)COCCOCCNC(=O)CC[C@H](NC(=O)CCCCCCCCCCC)C(=O)O)C(=O)N[C@@H](Cc1ccccc1)C(=O)N[C@H](C(=O)N[C@@H](C)C(=O)N[C@@H](Cc1ccccc1)C(=O)N[C@@H](CCCCNC(=O)COCCOCCNC(=O)COCCOCCNC(=O)CC[C@H](NC(=O)CCCCCCCCCCC)C(=O)O)C(=O)N[C@H](C(=O)N[C@@H](CCC(=O)O)C(=O)NCC(=O)NCC(N)=O)C(C)C)[C@@H](C)CC)C(=O)O [compound 474] (H-H[Aib]EGS[αMeF]TSDK([AEEA-AEEA-γGlu-Lauroyl])SSYLEGEAA[αMeK]K([AEEA-AEEA-γGlu-Lauroyl])FIAFK([AEEA-AEEA-γGlu-Lauroyl])VEGG-NH2)	290 pM	
CCCCCCCCCCCC(=O)N[C@@H](CCC(=O)NCCOCCOCC(=O)NCCOCCOCC(=O)NCCCC[C@H](NC(=O)CNC(=O)[C@H](CCC(=O)O)NC(=O)[C@H](CC(C)C)NC(=O)[C@H](CCCCNC(=O)COCCOCCNC(=O)COCCOCCNC(=O)CC[C@H](NC(=O)CCCCCCCCCCC)C(=O)O)NC(=O)[C@H](CO)NC(=O)[C@](C)(CO)NC(=O)[C@@H](NC(=O)[C@H](CC(=O)O)NC(=O)[C@H](CO)NC(=O)[C@@H](NC(=O)[C@](C)(Cc1ccccc1)NC(=O)[C@H](CO)NC(=O)CNC(=O)[C@H](CCC(=O)O)NC(=O)C(C)(C)NC(=O)[C@@H](N)Cc1c[nH]cn1)[C@@H](C)O)C(C)C)C(=O)N[C@@H](C)C(=O)N[C@@H](C)C(=O)N[C@@](C)(CCCCN)C(=O)N[C@@H](CCC(=O)O)C(=O)N[C@@H](Cc1ccccc1)C(=O)N[C@H](C(=O)N[C@@H](C)C(=O)N[C@@H](Cc1ccccc1)C(=O)N[C@@H](CCCCNC(=O)COCCOCCNC(=O)COCCOCCNC(=O)CC[C@H](NC(=O)CCCCCCCCCCC)C(=O)O)C(=O)N[C@H](C(=O)N[C@@H](CCC(=O)O)C(=O)NCC(=O)NCC(N)=O)C(C)C)[C@@H](C)CC)C(=O)O [compound 480] (H-H[Aib]EGS[αMeF]TSDV[αMeS]SK([AEEA-AEEA-γGlu-Lauroyl])LEGK([AEEA-AEEA-γGlu-Lauroyl])AA[αMeK]EFIAFK([AEEA-AEEA-γGlu-Lauroyl])VEGG-NH2; N-terminus assumed)	57.5 pM	
CCCCCCCCCCCC(=O)N[C@@H](CCC(=O)NCCOCCOCC(=O)NCCOCCOCC(=O)NCCCC[C@H](NC(=O)[C@H](CCC(=O)O)NC(=O)CNC(=O)[C@H](CCC(=O)O)NC(=O)[C@H](CC(C)C)NC(=O)[C@H](CCCCNC(=O)COCCOCCNC(=O)COCCOCCNC(=O)CC[C@H](NC(=O)CCCCCCCCCCC)C(=O)O)NC(=O)[C@H](CO)NC(=O)[C@](C)(CO)NC(=O)[C@@H](NC(=O)[C@H](CC(=O)O)NC(=O)[C@H](CO)NC(=O)[C@@H](NC(=O)[C@](C)(Cc1ccccc1)NC(=O)[C@H](CO)NC(=O)CNC(=O)[C@H](CCC(=O)O)NC(=O)C(C)(C)NC(=O)[C@@H](N)Cc1c[nH]cn1)[C@@H](C)O)C(C)C)C(=O)N[C@@H](C)C(=O)N[C@@](C)(CCCCN)C(=O)N[C@@H](CCC(=O)O)C(=O)N[C@@H](Cc1ccccc1)C(=O)N[C@H](C(=O)N[C@@H](C)C(=O)N[C@@H](Cc1ccccc1)C(=O)N[C@@H](CCCCNC(=O)COCCOCCNC(=O)COCCOCCNC(=O)CC[C@H](NC(=O)CCCCCCCCCCC)C(=O)O)C(=O)N[C@H](C(=O)N[C@@H](CCC(=O)O)C(=O)NCC(=O)NCC(N)=O)C(C)C)[C@@H](C)CC)C(=O)O [compound 481] (H-H[Aib]EGS[αMeF]TSDV[αMeS]SK([AEEA-AEEA-γGlu-Lauroyl])LEGEK([AEEA-AEEA-γGlu-Lauroyl])A[αMeK]EFIAFK([AEEA-AEEA-γGlu-Lauroyl])VEGG-NH2)	143 pM	
